According to the NIST ThermoML archive (doi:10.1021/acs.jced.5b00049):
± gives the expanded uncertainty stated by the source.

Details: Liquid, Buoyancy - hydrostatic balance with magnetic suspension - one sinker

CCCCCCCCCCCCCC [tetradecane]
Details | mass density [kg/m3]
313.13 K, 16040 kPa | 760.35 ± 0.24
313.15 K, 14050 kPa | 759.03 ± 0.24
313.15 K, 18060 kPa | 761.65 ± 0.24
313.17 K, 19040 kPa | 762.28 ± 0.24
313.19 K, 10020 kPa | 756.25 ± 0.24
313.23 K, 12040 kPa | 757.62 ± 0.24
323.14 K, 14050 kPa | 752.38 ± 0.24
323.18 K, 12040 kPa | 750.93 ± 0.24
323.18 K, 16070 kPa | 753.74 ± 0.24
323.23 K, 18060 kPa | 755.07 ± 0.24
323.25 K, 19080 kPa | 755.76 ± 0.24
323.26 K, 10000 kPa | 749.44 ± 0.24
333.13 K, 18050 kPa | 748.61 ± 0.24
333.13 K, 19060 kPa | 749.31 ± 0.24
333.14 K, 10050 kPa | 742.64 ± 0.23
333.16 K, 12040 kPa | 744.14 ± 0.24
333.16 K, 16060 kPa | 747.18 ± 0.24
333.28 K, 14060 kPa | 745.66 ± 0.24
343.31 K, 16030 kPa | 740.68 ± 0.23
343.31 K, 19040 kPa | 742.92 ± 0.23
343.32 K, 10040 kPa | 736 ± 0.23
343.32 K, 12050 kPa | 737.59 ± 0.23
343.34 K, 18020 kPa | 742.16 ± 0.23
343.35 K, 14070 kPa | 739.16 ± 0.23
353.48 K, 16030 kPa | 734.17 ± 0.23
353.5 K, 18010 kPa | 735.7 ± 0.23
353.51 K, 19050 kPa | 736.41 ± 0.23
353.58 K, 12050 kPa | 730.83 ± 0.23
353.63 K, 10020 kPa | 729.05 ± 0.23
353.66 K, 14040 kPa | 732.42 ± 0.23
